The results in this text go back to patent US10023593B2, “ALK kinase inhibitor, and preparation method and uses thereof” (BEIJING PEARL BIOTECHNOLOGY LIMITED LIABILITY COMPANY, priority 2014, dated 2018).

Each structure is given as a SMILES string.

The experiment has as its system NCI-H2228 cell line. Kind of experiment: CellTiter-Glo cell proliferation inhibition on NCI-H2228 cell line. The experiment is classed as cell-based. As to conditions: Homo sapiens, NCI-H2228, 96 h, NCI-H2228 cells, 5000 cells/well, 4 days drug treatment. As to the method: 3. Cell Proliferation Inhibitory Activities of the Compounds of the Present Invention on NCI-H2228 Cell Line
? experimental method ? CellTiter-Glo® Luminescent Cell Viability Assay kit from Promega company was used to detect cell proliferation inhibitory activities of the compounds on NCI-H2228 cell line.
? instrument ? Envision 2104 plate reader from PerKinElmer company; Vi-Cell XR cell counter from Beckman Counter company; MCO-18AIC CO2 incubator from SANYO company.
? experiment material ? CellTiter-Glo® Luminescent Cell Viability Assay Kit (Promega company, catalog No. G7573); NCI-H2228 cell line (ATCC, catalog No. CRL-5935); RPMI-1640 medium (HyClone company, catalog No. SH30809.01B); fetal bovine serum (FBS) (Gibco company, catalog No. 10099-141); trypsin (Trypsin) (Gibco company, catalog No. 25200-072); PBS (HyClone company, catalog No. SH30256.01B); 96 wells cell culture plate (Corning company, catalog No. 3610); DMSO (AMRESCO company, catalog No. 0231); 96 wells plates (for diluting compounds) (CITOTEST company, catalog No. Ref36020096D);
? experimental condition ? NCI-H2228 cells in exponential growth phase were collected and treated with trypsin (Trypsin), and viable cells were counted by Vi-Cell XR cell counter. Cell suspension was adjusted to 62500 cells/ml with culture medium (RPMI-1640+10% FBS). 80 μl cell suspension was added into each well of 96 wells cell culture plate so that the final cell number of NCI-H2228 cells was 5000 cells/well. The cells were cultivated in an incubator with an atmosphere of 37° C., 5% CO2 and 95% humidity for 2 hours and then each well was added with 20 μl compounds in RPMI-1640 medium solution (the final concentration of DMSO was 0.5%). 4 days after drug treatment, each well was added with 50 μl CellTiter-Glo solution which was previously thawed and equilibrated to room temperature, and mixed for 2 minutes with microplate shaker. After placing at room temperature for 10 minutes, luminescence value was measured by PerkinElmer Envision 2104 plate reader and the data was analyzed.
? tested samples ? Compounds of the examples.
? data analysis ? Luminescence value of DMSO solvent control (Vvehicle control, which is the mean luminescence value from DMSO solvent control group)
Tested luminescence value (Vsample, which is the luminescence value from given concentration of compounds group) Inhibition rate (%)=(1−Vsample/Vvehicle control)×100
? data processing ? IC50 of compounds was calculated by using XLfit program in Excel.
On the technique in general: In ATP-based viability assays light output follows the ATP content of the culture.
As usually defined, the IC50 is the concentration that gives 50% inhibition. A higher IC50 goes with a need for much substance. As to `Cc1cc(Nc2ncc(Cl)c(Nc3cn(C)nc3S(=O)(=O)C(C)C)n2)c(OC2CC2)cc1C1CCCN(CCO)C1` (stereo not drawn) [Final product 139], the half-maximal inhibitory concentration (IC50) was found to be 90 nM. For `Cc1cc(Nc2ncc(Cl)c(Nc3cn(C)nc3S(=O)(=O)CC(C)C)n2)c(OC2CC2)cc1C1CCCN(CCO)C1` (stereo not drawn) [Final product 140], the IC50 was found to be 105 nM. Turning to `Cc1cc(Nc2ncc(Cl)c(Nc3cn(C)nc3S(=O)(=O)C(C)C)n2)c(OC(C)C)cc1C1CCCN(CCO)C1` (stereo not drawn) [Final product 141], inhibition was half-maximal at 147 nM (IC50). `COCCN1CCC(c2cc(OC(C)C)c(Nc3ncc(Cl)c(Nc4cn(C)nc4S(=O)(=O)C(C)C)n3)cc2C)CC1` [Final product 142, 5-chloro-N^2-(2-isopropoxy-4-(1-(2-methoxyethyl)piperidin-4-yl)-5-methyl-phenyl)-N^4-(3-(isopropylsulfonyl)-1-methyl-1H-pyrazol-4)-pyrimidin-2,4-diamine] yielded an IC50 of 140 nM. As to `CCOc1cc(C2CCN(CCOC)CC2)c(C)cc1Nc1ncc(Cl)c(Nc2cn(C)nc2S(=O)(=O)C(C)C)n1` [Final product 143, 5-chloro-N^2-(2-ethoxy-4-(1-(2-methoxyethyl)piperidin-4-yl)-5-methyl-phenyl)-N^4-(3-(isopropylsulfonyl)-1-methyl-1H-pyrazol-4)-pyrimidin-2,4-diamine], it took 32 nM to reach half-maximal inhibition (IC50). For `COCCN1CCC(c2cc(OC3CCC3)c(Nc3ncc(Cl)c(Nc4cn(C)nc4S(=O)(=O)C(C)C)n3)cc2C)CC1` [Final product 144, 5-chloro-N^2-(2-cyclobutyloxy-4-(1-(2-methoxyethyl)piperidin-4-yl)-5-methyl-phenyl)-N^4-(3-(isopropylsulfonyl)-1-methyl-1H-pyrazol-4)-pyrimidin-2,4-diamine], the midpoint of inhibition, the IC50, lay at 48 nM. In turn, `Cc1cc(Nc2ncc(Cl)c(Nc3cn(C)nc3S(=O)(=O)C(C)C)n2)c(OC2CC2)cc1C1CCN(CCF)CC1` [Final product 145, 5-chloro-N^2-[2-cyclopropoxy-4-(1-(2-fluoroethyl)piperidin-4-yl)-5-methylphenyl]-N^4-[1-methyl-3-(isopropylsulfonyl)-1H-pyrazol-4-yl]-pyrimidin-2,4-diamine] gave an IC50 of 54 nM. For the compound `Cc1cc(Nc2ncc(Cl)c(Nc3cn(C)nc3S(=O)(=O)C(C)C)n2)c(OC2CC2)cc1C1CCN(C(C)(C)CO)CC1` [Final product 147, 2-(4-(4-(5-chloro-4-(3-(isopropylsulfonyl)-1-methyl-1H-pyrazol-4-amino)pyrimidin-2-amino)-5-cyclopropoxy-2-methylphenyl)piperidin-1-yl)-2-methyl-1-propanol], the IC50 was 41 nM.

The compound `Cc1cc(Nc2ncc(Cl)c(Nc3cn(C)nc3S(=O)(=O)C(C)C)n2)c(OC2CC2)cc1C1CCCN(C(C)(C)CO)C1` (stereo not drawn) [Final product 148] returned an IC50 of 44 nM. For `Cc1cc(Nc2ncc(Cl)c(Nc3cn(C)nc3S(=O)(=O)CC(C)C)n2)c(OC2CC2)cc1C1CCN(C(C)(C)CO)CC1` [Final product 149], it took 57 nM to reach half-maximal inhibition (IC50). Consider `CCOc1cc(C2CCN(C(C)(C)CO)CC2)c(C)cc1Nc1ncc(Cl)c(Nc2cn(C)nc2S(=O)(=O)C(C)C)n1` [Final product 150], for which the IC50 came out at 43 nM. `CCOc1cc(C2CCCN(C(C)(C)CO)C2)c(C)cc1Nc1ncc(Cl)c(Nc2cn(C)nc2S(=O)(=O)C(C)C)n1` (stereo not drawn) [Final product 151] registered an IC50 of 70 nM. In turn, `Cc1cc(Nc2ncc(Cl)c(Nc3cn(C)nc3S(=O)(=O)C(C)C)n2)c(OC2CCC2)cc1C1CCN(C(C)(C)CO)CC1` [Final product 153] gave an IC50 of 60 nM. Turning to `Cc1cc(Nc2ncc(Cl)c(Nc3cn(C)nc3S(=O)(=O)C(C)C)n2)c(OC2CCC2)cc1C1CCCN(C(C)(C)CO)C1` (stereo not drawn) [Final product 154], the IC50 was 128 nM. Compound `Cc1cc(Nc2ncc(Cl)c(Nc3cn(C)nc3S(=O)(=O)C(C)C)n2)c(OC2CC2)cc1C1CCN(CC(=O)N(C)C)CC1` [Final product 155, 2-(4-(4-(5-chloro-4-(3-(isopropoxysulfonyl)-1-methyl-1H-pyrazol-4-yl-amino)pyrimidin-2-yl-amine)-5-cyclopropoxy-2-methylphenyl)piperidin-1-yl)-N,N-dimethylacetamide] gave an IC50 of 75 nM.
